# ChEMBL document CHEMBL3351494, “Selenium analogues of raloxifene as promising antiproliferative agents in treatment of breast cancer” (Eur J Med Chem, 2014)
# Calls of active or inactive are those of the source. The calls are words filed in the database; no cut-off is given here.
# What was measured:
# [1] = Cytotoxicity against human HT1080 cells after 72 hrs by MTT assay; format: functional, cell-based; conditions: HT-1080, 72 h
# [2] = Cytotoxicity against human MES-SA cells after 72 hrs by MTT assay; format: functional, cell-based
# [3] = Acute toxicity in po dosed rat; format: organism-based; conditions: in vivo
# MG-22A = experiment: Cytotoxicity against mouse MG-22A cells after 72 hrs by MTT assay; format: functional, cell-based
# [4] = Cytotoxicity against mouse NIH/3T3 cells after 72 hrs by MTT assay; format: cell-based; conditions: NIH3T3, 72 h
# [5] = Cytotoxicity against human MDA-MB-435S cells after 72 hrs by MTT assay; format: functional, cell-based
# [6] = Cytotoxicity against mouse CCL8 cells after 72 hrs by MTT assay; format: functional, cell-based; conditions: CCL8, 72 h
# MCF7 = experiment: Cytotoxicity against human MCF7 cells after 72 hrs by MTT assay; format: functional, cell-based; conditions: MCF7, 72 h
# CCRF S-180 = experiment: Antitumor activity against mouse S180 cells allografted in ICR mouse assessed as tumor growth inhibition at 15 mg/kg, ip qd administered 24 hrs post tumor implantation for 9 days measured after 9 days relative to control; format: functional, organism-based; design: dose 15 mg/kg
# 4T1 [7] = experiment: Antitumor activity against mouse 4T1 cells allografted in BALB/c mouse assessed as tumor growth inhibition at 15 mg/kg, ip administered 24 hrs post tumor implantation on even days of total 9 doses for 18 days measured after 18 days relative to control; format: functional
# 4T1 [8] = experiment: Antitumor activity against mouse 4T1 cells allografted in BALB/c mouse assessed as tumor growth inhibition at 1.8 mg/kg, ip administered 24 hrs post tumor implantation on even days of total 9 doses for 18 days relative to control; format: functional; conditions: 4T1, ip, route intraperitoneal, read-out: TGI
# Mus musculus = experiment: Toxicity in mouse 4T1 cells allografted BALB/c mouse assessed as body weight loss at 15 mg/kg, ip administered 24 hrs post tumor implantation on even days of total 9 doses for 18 days measured after 18 days relative to control; format: organism-based; design: dose 15 mg/kg, route intraperitoneal; conditions: in vivo, 432 h
Structure (SMILES),IC50 [1],IC50 [2],LD50 [3],IC50 (MG-22A),IC50 [4],IC50 [5],IC50 [6],IC50 (MCF7),TGI (CCRF S-180),"inhibition in vivo at 15 mg/kg (4T1 [7]; 4T1, ip, route intraperitoneal, read-out: TGI)",inhibition in vivo at 1.8 mg/kg (4T1 [8]),Activity (Mus musculus),TGI (4T1 [7])
Cl.O=C(c1ccc(OCCN2CCCCC2)cc1)c1c(-c2ccc(F)cc2)[se]c2cc(F)ccc12,4.5 µM,4.5 µM,280 mg/kg,4.5 µM,9 µM,3.6 µM,3.6 µM,11.6 µM,,,,,
Cl.O=C(c1ccc(OCCN2CCCCC2)cc1)c1[se]c2cc(O)ccc2c1-c1ccc(O)cc1,30 µM,14.3 µM,615 mg/kg,3.6 µM,28 µM,32 µM,3.6 µM,25 µM,,,,,
C[N+](C)(C)CCOc1ccc(C(=O)c2c(-c3ccc(O)cc3)[se]c3cc(O)ccc23)cc1.[Cl-],131 µM,,1540 mg/kg,124 µM,452 µM,,,,,,,,
Cl.O=C(c1ccc(OCCN2CCOCC2)cc1)c1c(-c2ccc(F)cc2)[se]c2cc(F)ccc12,27 µM,53 µM,1410 mg/kg,21 µM,363 µM,168 µM,25 µM,121 µM,,,,,
CNCCOc1ccc(C(=O)c2c(-c3ccc(O)cc3)[se]c3cc(O)ccc23)cc1.Cl,6 µM,42 µM,452 mg/kg,6 µM,32 µM,17 µM,46 µM,12 µM,,,,,
Cl.O=C(c1ccc(OCCN2CCCCCC2)cc1)c1c(-c2ccc(O)cc2)[se]c2cc(O)ccc12,27 µM,39 µM,400 mg/kg,5.2 µM,14 µM,14 µM,36 µM,40 µM,,,,,
Cl.O=C(c1ccc(OCCN2CCCCC2)cc1)c1c(-c2ccc(O)cc2)[se]c2cc(O)ccc12,12 µM,56 µM,446 mg/kg,5.4 µM,22 µM,3.6 µM,5.4 µM,35 µM,inactive,30%,4%,Non-toxic,
CN(C)CCOc1ccc(C(=O)c2c(-c3ccc(F)cc3)[se]c3cc(F)ccc23)cc1.Cl,4.8 µM,3.8 µM,313 mg/kg,3.8 µM,11 µM,3.5 µM,3.8 µM,6.7 µM,,,,,
CN(C)CCOc1ccc(C(=O)c2c(-c3ccc(O)cc3)[se]c3cc(O)ccc23)cc1.Cl,48 µM,51 µM,413 mg/kg,9 µM,20 µM,26 µM,28 µM,22 µM,,,,,
Cl.O=C(c1ccc(OCCN2CCOCC2)cc1)c1[se]c2cc(O)ccc2c1-c1ccc(O)cc1,8.6 µM,6.9 µM,465 mg/kg,5.2 µM,16 µM,15.5 µM,3.4 µM,31 µM,,,,,
Cl.O=C(c1ccc(OCCN2CCOCC2)cc1)c1c(-c2ccc(O)cc2)[se]c2cc(O)ccc12,46 µM,61 µM,553 mg/kg,8 µM,36 µM,32 µM,9.8 µM,38 µM,,,,,
O=C(c1ccc(OCCN2CCCCC2)cc1)c1c(-c2ccc(O)cc2)sc2cc(O)ccc12 [RALOXIFENE],34 µM,37 µM,255 mg/kg,6.8 µM,7.8 µM,26 µM,27 µM,50 µM,inactive,,70%,,inactive
O=[Se]([O-])[O-].[Na+].[Na+] [SODIUM SELENITE],1.7 µM,29 µM,105 mg/kg,64 µM,23 µM,12 µM,8 µM,17 µM,,,,,
CCCCCCCCN(C)CCOc1ccc(C(=O)c2c(-c3ccc(O)cc3)[se]c3cc(O)ccc23)cc1.Cl,4.7 µM,4 µM,308 mg/kg,3.2 µM,8 µM,4 µM,4.7 µM,4.7 µM,,,,,
Cl.O=C(c1ccc(OCCN2CCCC2)cc1)c1c(-c2ccc(O)cc2)[se]c2cc(O)ccc12,36 µM,32 µM,543 mg/kg,21 µM,42 µM,43 µM,34 µM,33 µM,,,,,
CN(C)CCOc1ccc(C(=O)c2[se]c3cc(O)ccc3c2-c2ccc(O)cc2)cc1.Cl,5.8 µM,5.8 µM,674 mg/kg,3.9 µM,31 µM,3.8 µM,3.8 µM,17.3 µM,,,,,
